In patent US6485941B1, “Inhibition of the carboxyltransferase component of acetyl-CoA carboxylase, and the use of such inhibition in anti-cancer and anti-lipogenic therapies” (Board of Supervisors of Louisiana State University and …, priority 2002, dated 2002):

Key:
[1] = biological target: T1, carboxyltransferase component of E. coli acetyl-CoA carboxylase (Escherichia coli, UniProt P0A9Q5+P0ABD5); test: Carboxyltransferase inhibition, assayed in the reverse direction with coupled spectrophotometric detection; type: biochemical
T1 construct: made in house; host or cells: E. coli overexpression strain (Blanchard et al. 1998; G. Waldrop, LSU)
T1 sequence (P0ABD5 1-319): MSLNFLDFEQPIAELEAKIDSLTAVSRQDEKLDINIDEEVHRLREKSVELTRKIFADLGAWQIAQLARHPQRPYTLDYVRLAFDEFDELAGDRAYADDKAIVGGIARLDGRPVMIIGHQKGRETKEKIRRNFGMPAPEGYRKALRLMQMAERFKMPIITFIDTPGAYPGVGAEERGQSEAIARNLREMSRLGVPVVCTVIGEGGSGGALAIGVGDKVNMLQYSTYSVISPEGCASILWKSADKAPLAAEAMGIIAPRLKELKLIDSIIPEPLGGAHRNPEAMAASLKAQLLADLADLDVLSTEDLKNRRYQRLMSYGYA
T1 sequence (P0A9Q5 1-304): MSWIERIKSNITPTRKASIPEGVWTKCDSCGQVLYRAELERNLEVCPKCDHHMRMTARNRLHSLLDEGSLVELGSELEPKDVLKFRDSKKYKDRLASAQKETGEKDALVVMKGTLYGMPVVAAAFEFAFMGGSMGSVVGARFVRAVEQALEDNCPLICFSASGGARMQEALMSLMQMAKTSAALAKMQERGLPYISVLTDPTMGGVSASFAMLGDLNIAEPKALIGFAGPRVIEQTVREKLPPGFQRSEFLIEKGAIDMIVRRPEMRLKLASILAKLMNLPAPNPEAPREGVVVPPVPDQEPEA
Experimental: Carboxyltransferase was purified from a strain of E. coli that overexpresses the genes encoding the α and β subunits of the enzyme. C. Blanchard et al., J. Biol. Chem. 273, 19140-19145 (1998). (E. coli strain available on request from G. Waldrop, Department of Biological Sciences, Louisiana State University, Baton Rouge, La.) The published procedure was modified slightly. Bacteria were grown to saturation at 37° C. in 1 L of LB medium in 2 L flasks, and were then induced with 1 g of lactose and incubated without shaking at 25° C. for 24 h. The concentration of carboxyltransferase was determined by the method of M. Bradford, Anal. Biochem. 72, 248-254 (1976) using bovine serum albumin as a standard.
(§1) Carboxyltransferase was assayed in the reverse direction: the production of acetyl-CoA was detected by using the coupling enzymes malate dehydrogenase and citrate synthase, and the reduction of NAD^+ was measured spectrophotometrically by the method of C. Blanchard et al., J. Biol. Chem. 273, 19140-19145 (1998); and R. Guchhait et al., Methods Enzymol. 35, 32-37 (1975).
In Equations [1] and [2], v is the initial velocity, Vm is the maximal velocity, A is the substrate concentration, I is the concentration of inhibitor, Km is the Michaelis constant, Kis is the slope inhibition constant, and Kii is the intercept inhibition constant.
v=VmA/(Km(1+I/Kis)+A(1+I/Kii))
The activity of carboxyltransferase was measured in the reverse direction using malonyl-CoA and biocytin as substrates.

3T3-L1 pre-adipocytes = test: 3T3-L1 adipocyte differentiation (Western blot of transcription factors, Oil Red O staining); type: cell-based, murine
Experimental: Murine 3T3-L1 pre-adipocytes (a kind gift from Howard Green, Harvard University, Cambridge, Mass.) were plated and grown to 2 days post-confluence in DMEM supplemented with 10% bovine serum. Medium was changed every 48 hours. Cells were induced to differentiate into adipocytes by changing the medium to DMEM supplemented with 10% fetal bovine serum (FBS), 0.5 mM 3-isobutyl-1-methylxanthine (MIX) (Sigma), 1 μM dexamethasone (DEX) (Sigma), and 1.7 μM insulin (Sigma). After 48 hours this medium was replaced with DMEM supplemented with 10% FBS, and the cells were maintained in this medium until they were used in experiments. Compound 2 was dissolved in DMSO and added to the cell culture media at a 1:1000 dilution for experiments. Vehicle additions were also conducted for each experiment as controls.
Monolayers of 3T3-L1 adipocytes were rinsed with phosphate-buffered saline (PBS) and then harvested in a non-denaturing buffer containing 150 mM NaCl, 10 mM Tris, pH 7.4, 1 mM EGTA, 1 mM EDTA, 1% Triton-X 100, 0.5% Nonidet P-40 detergent (Sigma), 1 μM PMSF (phenylmethylsulfonyl fluoride protease inhibitor, Sigma), 1 μM pepstatin (Sigma), 50 trypsin inhibitory milliunits of aprotinin (Sigma), 10 μM leupeptin (Sigma), and 2 mM sodium vanadate (Fisher Chemical, Fair Lawn, […]) for Western blot analysis. Samples were extracted for 30 minutes on ice and centrifuged at 10,000 g at 4° C. for 15 minutes. Supernatants containing whole cell extracts were analyzed for protein content using a BCA kit (Pierce) according to the manufacturer's instructions.
Proteins were separated in 5%, 7.5%, or 12% polyacrylamide (National Diagnostics, […].) gel containing sodium dodecyl sulfate (SDS) following the procedure of U. Laemmli, Nature 227, 680-685 (1970). Proteins were then transferred to nitrocellulose (BioRad, Atlanta, Ga.) in 25 mM Tris, 192 mM glycine, and 20% methanol. Following transfer, the membrane was blocked in 4% milk (non-fat, dried milk reconstituted in water at a 4% concentration (w/v)) for 1 hour at room temperature. Results were visualized with horseradish peroxidase (HRP)-conjugated secondary antibodies (Sigma) and enhanced chemiluminescence (Pierce).
The murine 3T3-L1 pre-adipocyte cell line was used to examine the effects of Compound 2 on adipocyte differentiation. The 3T3-L1 cell line can be induced to differentiate in culture from fibroblasts, or pre-adipocytes, into cells with the morphological and biochemical properties of adipocytes. […] For example, these cells accumulate lipids, respond to insulin, and secrete leptin. The 3T3-L1 pre-adipocytes were first grown to a confluent monolayer. At two days post-confluence, the cells were exposed to a “differentiation cocktail” (FBS, MIX, DEX, and insulin) for 48 hours, and the cells were then maintained in 10% FBS in DMEM in the presence or absence of various doses of Compound 2. A vehicle addition of DMSO was also performed as a control. Compound 2 or DMSO was added in a 1-to-1000 dilution to the cell culture medium every 24 hours. One week after treatment with the differentiation cocktail, whole cell extracts were prepared, and cells were stained with Oil Red O to assess lipid accumulation.
The differentiation of pre-adipocytes into adipocytes has been attributed, in part, to increased expression of several transcription factors, including PPARγ and STATs 1, 5A, and 5B. To observe the differentiation of pre-adipocytes into adipocytes, the expression of these transcription factors was examined by Western blot analysis (data not shown). Adipogenesis was also assessed by examining lipid accumulation, as judged by Oil Red O staining (data not shown).
Whole cell extracts were prepared one week after the induction of differentiation in the presence of 0, 1, 2, 4, 8, or 17 μM doses of Compound 2, or treatment with DMSO (vehicle), with treatments in each case repeated every 24 hours. […]

[2] = biological target: T2, murine acetyl-CoA carboxylase (Mus musculus, UniProt Q5SWU9); test: Acetyl-CoA carboxylase activity in cell-free extracts of pre-adipocytes, compound added to extract; type: biochemical
T2 construct: endogenous in cells; host or cells: murine 3T3-L1 pre-adipocytes (cytosolic extract)
Experimental: (§2) The above procedure was modified to prepare extracts for enzymatic analysis. The non-denaturing buffer in that case contained 150 mM KCl instead of NaCl, and there was no Triton X-100, Nonidet P-40, nor any protease or phosphatase inhibitors in the buffer. The cell monolayers were scraped into this buffer, and were homogenized with 16 strokes in a Dounce homogenizer. The homogenates were centrifuged at 10,000 g for 5 minutes, and the supernatants were saved as cytosolic extract, quantitated, and used to assay acetyl-CoA carboxylase activity.
The activity of acetyl-CoA carboxylase from 3T3-L1 cell lysates was determined in a fixed-time assay using HPLC. HPLC is not normally used in this field, because cell lysates are mixtures of such a large number of different components; it would be more conventional to use an assay employing radioactivity. […] This assay will be useful in monitoring the progress and reaction of patients who are administered treatment in accordance with this invention.
(§3) Assays were performed by measuring the loss of acetyl-CoA, or the production of malonyl-CoA, at 5 minute intervals for 20 minutes, using reverse-phase HPLC. […] Rates were calculated by linear regression analysis of malonyl-CoA concentration as a function of time. […] Following termination of the reaction, the samples were centrifuged (3 min, 10,000 g) and then analyzed by HPLC. […]

[3] = test system: breast cancer cell line MCF7; test: MCF7 cellular proliferation (counting viable cells as a function of time); type: cell-based; settings: preliminary data; number of viable cells as a function of time
Excerpt: Cancer cells also typically have high levels of fatty acid synthesis. Various inhibitors of fatty acid synthesis are currently in clinical trials for the treatment of breast cancers. Since acetyl-CoA carboxylase—not fatty acid synthase—is the rate-limiting enzyme in fat synthesis, the inhibition of acetyl-CoA carboxylase with the bisubstrate analog should be at least as effective in treating cancers as fatty acid synthesis inhibitors, if not more so.

acetyl-CoA carboxylase = biological target: T3, acetyl-CoA carboxylase (Mus musculus, UniProt Q5SWU9); test: Acetyl-CoA carboxylase activity in lysates of treated pre-adipocytes (HPLC fixed-time assay); type: cell-based, murine; settings: pre-adipocytes treated with 10 μM for four hours; DMSO control 1.40 nmol/min-mg
T3 construct: endogenous in cells; host or cells: murine 3T3-L1 pre-adipocytes (cytosolic extract)
Experimental: as §2
The activity of acetyl-CoA carboxylase from 3T3-L1 cell lysates was determined in a fixed-time assay using HPLC. HPLC is not normally used in this field, because cell lysates are mixtures of such a large number of different components; it would be more conventional to use an assay employing radioactivity. […]
as §3
We also examined whether there was a concomitant decrease in the activity of acetyl-CoA carboxylase. […] Acetyl-CoA carboxylase activity was measured by analytical reverse phase HPLC. […]

citrate synthase = test: Coupling enzyme control (NAD+ reduction after addition of acetyl-CoA); type: biochemical; settings: 0.6 mM compound
Experimental: as §1
(§4) The bisubstrate analog had previously been observed not to inhibit the activity of either of these coupling enzymes at 0.6 mM, a value three times higher than the highest concentration used in the inhibition studies.

malate dehydrogenase = test: as above; type: biochemical; settings: 0.6 mM compound
Experimental: as §1, §4

| Compound | Km ([1]; substrate of carboxyltransferase, reverse direction) [mM] | adipocyte differentiation of 3T3-L1 cells (3T3-L1 pre-adipocytes; 0, 1, 2, 4, 8 or 17 μM, repeated every 24 hours, one week) | induction of PPARγ expression (Western blotting) (3T3-L1 pre-adipocytes; 17 μM or 8 μM) | lipid accumulation (Oil Red O staining) (3T3-L1 pre-adipocytes; 17 μM or 8 μM) | levels of STAT3 (3T3-L1 pre-adipocytes; Western blot) | expression of STATs 1 and 5A (3T3-L1 pre-adipocytes; Western blot, during induced differentiation) | reversibility of inhibition of differentiation (3T3-L1 pre-adipocytes; compound not re-added at 24 hour intervals after initial treatment) | effect on acetyl-CoA carboxylase activity in cell-free extracts [2] | cellular proliferation of MCF7 [3] | activity of acetyl-CoA carboxylase from treated cells (acetyl-CoA carboxylase) [nmol malonyl-CoA/min-mg] | inhibition of coupling enzyme citrate synthase (citrate synthase) | inhibition of coupling enzyme malate dehydrogenase (malate dehydrogenase) | Ki [1] [µM] | binding energy of the inhibitor relative to the sum of binding energies of the two substrates (times less) [1] | factor by which the product of the substrate dissociation constants exceeds the inhibition constant ([1]; Km of malonyl-CoA and biocytin used as dissociation constants) | inhibition pattern with malonyl-CoA as the variable substrate ([1]; biocytin held constant at 6.0 mM) | inhibition pattern with biocytin as the variable substrate ([1]; malonyl-CoA held constant at 0.1 mM) |
| --- | --- | --- | --- | --- | --- | --- | --- | --- | --- | --- | --- | --- | --- | --- | --- | --- | --- |
| N[C@@H](CCCCNC(=O)CCCC[C@@H]1SC[C@@H]2NC(=O)N[C@@H]21)C(=O)O [biocytin] | 8 |  |  |  |  |  |  |  |  |  |  |  |  |  |  |  |  |
| phenylmethyl 5-(6,8-diaza-6-(2-X-acetyl)-7-oxo-3-thiabicyclo[3.3.0]oct-2-yl)pentanoate [Compound 2] |  | inhibited adipocyte differentiation of 3T3-L1 cells in a dose-dependent manner | blocked the induction of PPARγ expression | blocked lipid accumulation | unaffected | inhibited in a dose-dependent manner | reversible | had no effect | inhibited cellular proliferation in that cell line in a dose-dependent manner | 0.30 |  |  |  |  |  |  |  |
| CC(C)(COP(=O)(O)OP(=O)(O)OCC1OC(n2cnc3c(N)ncnc32)C(O)C1OP(=O)(O)O)C(O)C(=O)NCCC(=O)NCCSCC(=O)N1C(=O)NC2C(CCCCC(=O)OCc3ccccc3)SCC21 (stereo not drawn) [Compound 1] |  |  |  |  |  |  |  | inhibited murine acetyl-CoA carboxylase activity |  |  | No decrease in activity | No decrease in activity | 23 ± 2 | about 1.3 | about 35 | competitive inhibition | noncompetitive inhibition |
